According to patent US11879012B2, “Method of modulating cell proliferation” (METRO NORTH HOSPITAL AND HEALTH SERVICE, priority 2018, dated 2024):

System: corneal-limbal epithelial cells
Test: MTT conversion / proliferation of primary corneal-limbal epithelial cells
Type: cell-based, human
Settings: 40 μM Y27632 alone; FIG. 5D
Excerpt: Cultures of non-transformed human corneal epithelial cells were established from either enzymatically-dissociated sample of corneal-scleral tissue or from pieces of intact corneal limbus seeded into culture dishes (i.e., explant method). In either case, corneal tissue from cadaveric donors was used. Each tissue sample was acquired with consent and ethics approval our HREC Approval No. 0800000807) in the form of either surgical cut-offs or intact corneas that had been rejected by the eye bank (e.g., poor endothelial cell density).
For dissociated cultures, washed tissue samples were cut into quarters before being incubated for 1 hour at 37° C. in 0.25% (w/v) Dispase solution (Life Technologies). Epithelial tissue was subsequently harvested from the limbus and peripheral cornea by scraping with a pipette tip, then dissociated by digestion in 0.05% Trypsin/0.02% EDTA (Sigma) for 5 minutes at 37° C. The resulting cell suspension was washed and resuspended in complete culture medium. […]
To initiate cultures from whole tissue, each well of a 6-well culture plate (approximately 6×10 cm^2) was initially filled with 2 mL, of 100% FBS and incubated for at least 30 minutes at 37° C. […] Over subsequent days, each p0 culture was routinely monitored for evidence of epithelial outgrowth until a confluent sheet measuring approximately 2-3 cm^2 had been achieved (approximately 1-2 weeks). […]

## C[C@@H](N)[C@H]1CC[C@H](C(=O)Nc2ccncc2)CC1 [Y27632]
  MTT conversion (cell proliferation): dose-dependent increase in MTT conversion
